The supplement of paper PMC4862054

What was measured:
Details in all cases: incubation time: 72 h
SK-BR-3 = test: normalised response (% of control), CellTiter-Glo; higher = more viable cells (100 = DMSO, 0 = benzethonium chloride kill control)
Protocol: (§1)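 DSRT, 72 h incubation, CellTox Green / CellTiter-Glo readout. Signal is normalised to DMSO and benzethonium chloride controls. Value is the normalised response at dose 3.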

Hs578T [1] = test: as above
Protocol: as §1

HCC1143 [2] = test: as above
Protocol: as §1

CAL-148 [3] = test: as above
Protocol: as §1

HDQ-P1 [4] = test: as above
Protocol: as §1

CAL-120 [5] = test: as above
Protocol: as §1

MDA-MB-436 [6] = test: as above
Protocol: as §1

MDA-MB-453 [7] = test: as above
Protocol: as §1

BT-474 [8] = test: as above
Protocol: as §1

HCC1599 [9] = test: as above
Protocol: as §1

MCF-10A [10] = test: as above
Protocol: as §1

MDA-MB-231 [11] = test: as above
Protocol: as §1

MDA-MB-468 [12] = test: as above
Protocol: as §1

BT-549 [13] = test: as above
Protocol: as §1

HCC1937 [14] = test: as above
Protocol: as §1

CAL-85-1 [15] = test: as above
Protocol: as §1

MFM-223 [16] = test: as above
Protocol: as §1

CAL-51 [17] = test: as above
Protocol: as §1

DU-4475 [18] = test: as above
Protocol: as §1

Hs578T [19] = test: normalised response (% of control), CellTox Green; higher = less cell death (100 = DMSO, 0 = benzethonium chloride kill control)
How it was run: (§2)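 Values are normalised signals, each belonging to one concentration of the series. Breast cancer cells (20 µl suspension) were seeded into 384-well plates with compound at 5 concentrations in 10-fold steps over a compound-specific 10,000-fold range and incubated 72 h. Readouts were CellTox Green fluorescence (485/520 nm), then CellTiter-Glo luminescence after 10 min at room temperature, with each plate set to 0.1 % DMSO as 100 and a positive kill control as 0.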

HCC1143 [20] = test: as above
How it was run: as §2

CAL-148 [21] = test: as above
How it was run: as §2

HDQ-P1 [22] = test: as above
How it was run: as §2

CAL-120 [23] = test: as above
How it was run: as §2

MDA-MB-436 [24] = test: as above
How it was run: as §2

MDA-MB-453 [25] = test: as above
How it was run: as §2

BT-474 [26] = test: as above
How it was run: as §2

HCC1599 [27] = test: as above
How it was run: as §2

MCF-10A [28] = test: as above
How it was run: as §2

MDA-MB-231 [29] = test: as above
How it was run: as §2

MDA-MB-468 [30] = test: as above
How it was run: as §2

BT-549 [31] = test: as above
How it was run: as §2

CAL-85-1 [32] = test: as above
How it was run: as §2

MFM-223 [33] = test: as above
How it was run: as §2

CAL-51 [34] = test: as above
How it was run: as §2

DU-4475 [35] = test: as above
How it was run: as §2

HCC1937 [36] = test: as above
How it was run: as §2

SMILES	normalised response (SK-BR-3)	normalised response (Hs578T [1])	normalised response (HCC1143 [2])	normalised response (CAL-148 [3])	normalised response (HDQ-P1 [4])	normalised response (CAL-120 [5])	normalised response (MDA-MB-436 [6])	normalised response (MDA-MB-453 [7])	normalised response (BT-474 [8])	normalised response (HCC1599 [9])	normalised response (MCF-10A [10])	normalised response (MDA-MB-231 [11])	normalised response (MDA-MB-468 [12])	normalised response (BT-549 [13])	normalised response (HCC1937 [14])	normalised response (CAL-85-1 [15])	normalised response (MFM-223 [16])	normalised response (CAL-51 [17])	normalised response (DU-4475 [18])	normalised response (Hs578T [19])	normalised response (HCC1143 [20])	normalised response (CAL-148 [21])	normalised response (HDQ-P1 [22])	normalised response (CAL-120 [23])	normalised response (MDA-MB-436 [24])	normalised response (MDA-MB-453 [25])	normalised response (BT-474 [26])	normalised response (HCC1599 [27])	normalised response (MCF-10A [28])	normalised response (MDA-MB-231 [29])	normalised response (MDA-MB-468 [30])	normalised response (BT-549 [31])	normalised response (CAL-85-1 [32])	normalised response (MFM-223 [33])	normalised response (CAL-51 [34])	normalised response (DU-4475 [35])	normalised response (HCC1937 [36])
CN1CCC(COc2cnc(-c3cccc(Cn4nc(-c5cccc(C#N)c5)ccc4=O)c3)nc2)CC1 (10 nM)	80.8%	92.8%	101%	92.9%	96.4%	98.8%	89%	89.2%	96.7%	100%	94.9%	102%	93.2%	104%	94.6%	97.2%	89.8%	64.8%	99%	76.3%	89.6%	108%	115%	95.4%	88.8%	100%	94.1%	101%	70%	98.5%	73.8%	103%	108%	103%	83.9%	99.5%	–
COc1cc(Nc2ncc3c(n2)-c2ccc(Cl)cc2C(c2c(F)cccc2OC)=NC3)ccc1C(=O)O [Alisertib] (100 nM)	67.9%	74.2%	71.2%	102%	87%	78.1%	67.6%	62%	77.2%	80.3%	81.2%	84%	33.2%	73.2%	82.8%	63.7%	76.3%	69.1%	67%	-59.3%	75%	90.1%	101%	92.8%	68.9%	93.9%	91.7%	92.3%	68.7%	69.8%	18.6%	96.1%	77.7%	97%	27.8%	89.9%	85.9%
